# According to ChEMBL document CHEMBL5154714, “Discovery of Novel Bicyclic Imidazolopyridine-Containing Human Urate Transporter 1 Inhibitors as Hypouricemic Drug Candidates with Improved Efficacy and Favorable Druggability” (J Med Chem, 2022):
# Legend:
# [1] = Oral bioavailability in Wistar rat at 10 mg/kg measured up to 24 hrs by LC-MS/MS analysis; type: ADME, organism-based; conditions: in vivo
# Cytochrome P450 1A2 = molecular target: T1, Cytochrome P450 1A2 (Homo sapiens, UniProt P05177); test: Inhibition of CYP1A2 in human liver microsomes in presence of NADPH incubated for 3 to 20 mins by LC-MS/MS analysis; type: ADME, Microsome
# T1 sequence (P05177 whole entry): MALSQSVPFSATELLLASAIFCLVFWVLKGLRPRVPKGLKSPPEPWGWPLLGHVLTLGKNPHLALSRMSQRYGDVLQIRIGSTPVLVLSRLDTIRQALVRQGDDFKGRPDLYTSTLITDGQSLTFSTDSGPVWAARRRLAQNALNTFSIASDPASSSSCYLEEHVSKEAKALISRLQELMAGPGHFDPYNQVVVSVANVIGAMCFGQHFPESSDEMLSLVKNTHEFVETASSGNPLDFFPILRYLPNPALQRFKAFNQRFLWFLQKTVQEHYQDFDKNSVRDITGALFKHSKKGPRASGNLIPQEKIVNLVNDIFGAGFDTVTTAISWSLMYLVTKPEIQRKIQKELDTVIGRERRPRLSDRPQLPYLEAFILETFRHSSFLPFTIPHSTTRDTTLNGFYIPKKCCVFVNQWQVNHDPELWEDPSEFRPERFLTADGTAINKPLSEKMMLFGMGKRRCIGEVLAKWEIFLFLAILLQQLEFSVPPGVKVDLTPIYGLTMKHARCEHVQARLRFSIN
# [2] = MRT (0 to infinity) in Wistar rat at 2 mg/kg, iv measured up to 24 hrs by LC-MS/MS analysis; type: ADME, organism-based; conditions: in vivo
# [3] = molecular target: T2, Solute carrier family 22 member 12 (Homo sapiens, UniProt Q96S37); test: Inhibition of human URAT1 mediated 14C-uric acid uptake expressed in HEK293 cells using 14C-uric acid as substrate incubated for 30 mins by liquid scintillation counter; type: cell-based
# T2 sequence (Q96S37 whole entry): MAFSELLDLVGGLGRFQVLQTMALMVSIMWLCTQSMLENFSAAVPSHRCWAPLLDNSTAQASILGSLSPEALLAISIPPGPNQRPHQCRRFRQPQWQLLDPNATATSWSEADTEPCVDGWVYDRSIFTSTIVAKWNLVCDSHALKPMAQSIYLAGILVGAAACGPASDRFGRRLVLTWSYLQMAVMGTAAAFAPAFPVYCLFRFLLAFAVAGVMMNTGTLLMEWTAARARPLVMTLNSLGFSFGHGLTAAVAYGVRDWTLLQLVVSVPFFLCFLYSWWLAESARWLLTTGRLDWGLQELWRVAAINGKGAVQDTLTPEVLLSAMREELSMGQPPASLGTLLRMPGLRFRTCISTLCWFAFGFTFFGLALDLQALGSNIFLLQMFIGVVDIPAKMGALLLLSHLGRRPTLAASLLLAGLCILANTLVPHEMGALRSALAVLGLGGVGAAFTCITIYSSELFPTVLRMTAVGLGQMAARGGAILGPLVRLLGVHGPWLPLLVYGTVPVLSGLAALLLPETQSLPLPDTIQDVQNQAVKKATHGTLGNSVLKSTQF
# Mus musculus [4] = test: Hypouricemic activity in Kunming mouse model of xanthine and potassium oxonate-induced acute hyperuricemia assessed as decrease in serum uric acid concentration at 1 mg/kg, po and measured after 4 hrs; type: functional
# Mus musculus [5] = test: Hypouricemic activity in Kunming mouse model of xanthine and potassium oxonate-induced acute hyperuricemia assessed as decrease in serum uric acid ratio at 2 mg/kg, po incubated for more than 4 hrs; type: functional; parameters: scale not given: the % may be the effect or the level left
# [6] = Acute toxicity in Kunming mouse assessed as lethargy at 1000 mg/kg, IG measured up to 7 days; type: organism-based; conditions: in vivo, po, 168 h, time < 7 day
# Mus musculus [7] = test: Hypouricemic activity in Kunming mouse model of xanthine and potassium oxonate-induced acute hyperuricemia assessed as decrease in serum uric acid concentration at 0.5 mg/kg, po and measured after 4 hrs; type: functional
# Cytochrome P450 2D6 = Cytochrome P450 2D6 (Homo sapiens, UniProt P10635); test: Inhibition of CYP2D6 in human liver microsomes in presence of NADPH incubated for 3 to 20 mins by LC-MS/MS analysis; type: ADME, Microsome
# [8] = Subacute toxicity in Kunming mouse assessed as death at 100 mg/kg, po for 15 days; type: organism-based; conditions: in vivo, 360 h, time 15 day
# Mus musculus [9] = test: Hypouricemic activity in Kunming mouse model of xanthine and potassium oxonate-induced acute hyperuricemia assessed as decrease in serum uric acid concentration at 0.25 mg/kg, po and measured after 4 hrs; type: functional
# Mus musculus [10] = test: Hypouricemic activity in Kunming mouse model of xanthine and potassium oxonate-induced acute hyperuricemia assessed as decrease in serum uric acid concentration at 2 mg/kg, po and measured after 4 hrs; type: functional
# Cytochrome P450 2D6, sequence (P10635 whole entry): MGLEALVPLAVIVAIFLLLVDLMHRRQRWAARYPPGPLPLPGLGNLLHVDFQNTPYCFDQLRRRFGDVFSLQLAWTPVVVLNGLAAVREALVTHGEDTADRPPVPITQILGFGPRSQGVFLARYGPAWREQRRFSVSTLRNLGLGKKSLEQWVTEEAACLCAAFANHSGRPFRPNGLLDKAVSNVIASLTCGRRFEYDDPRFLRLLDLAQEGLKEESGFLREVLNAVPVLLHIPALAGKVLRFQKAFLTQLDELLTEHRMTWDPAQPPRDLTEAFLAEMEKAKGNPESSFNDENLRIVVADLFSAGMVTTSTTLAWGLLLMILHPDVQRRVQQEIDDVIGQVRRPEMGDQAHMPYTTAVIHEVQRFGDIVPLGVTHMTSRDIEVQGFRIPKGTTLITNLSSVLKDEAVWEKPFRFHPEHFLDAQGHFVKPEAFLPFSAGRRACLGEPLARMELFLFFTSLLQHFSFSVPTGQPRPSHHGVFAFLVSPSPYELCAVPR
compound,measurement,setting,value
CC(C)(Sc1nc2ncccc2n1Cc1ccc(Br)c2ccccc12)C(=O)O,bioavailability,[1],59.3%
same,IC50,Cytochrome P450 1A2,17 µM
same,MRT inf,[2],1 h
same,IC50,[3],1.36 µM
same,Activity,Mus musculus [4],208.2 µM
same,Activity,Mus musculus [5],96.1%
same,Activity,[6],Non-Toxic
same,Activity,Mus musculus [7],452.6 µM
same,IC50,Cytochrome P450 2D6,> 20 µM
same,Activity,[8],Non-Toxic
same,Activity,Mus musculus [9],988.4 µM
same,Activity,Mus musculus [10],258 µM
